“Also recorded” adds a separate entry of the source.
Experiments:
hepatocarcinoma = conditions: experimental and clinical studies; cited from earlier work
RXRα = test: Western blotting of RXRα protein in HEK293 cells and stable lines; assay type: cell-based, human; conditions: HEK293 with β-catenin and RXRα, FIG. 4B
Experimental: (§1) (A) Western blotting analysis of HEK293 cells transfected with a combination of expression vectors for LacZ (2 μg), V5-tagged β-catenin(4 μg), and Flag-tagged RXRα (2 μg) as indicated below the gels. […] RXRα protein was measured using an HRP-conjugated mouse monoclonal antibody against the Flag tag. (B) Western blotting analysis of stable cell line RBC that overexpresses both β-catenin and RXRα. […] (C) Western blotting analysis of stable cell line CAT that overexpresses only β-catenin. […] Endogenous and overexpressed β-catenin were detected using a rabbit polyclonal antibody as indicated by “Total” whereas overexpressed β-catenin was analyzed using a mouse monoclonal antibody against the V5 tag. Endogenous and overexpressed RXRα were detected by a rabbit polyclonal antibody against RXRα, whereas overexpressed RXRα was determined by an HRP-conjugated mouse monoclonal antibody against the Flag tag. (D) Western blotting analysis of HEK293 cells transfected with a fixed amount of β-catenin (4 μg) plus an increasing amount of RXRα as indicated at the top. […] (E) Western blotting analysis of HEK293, CV-1, and Hela cells transfected with 2 μg of RXRα and 4 μg of wild type or mutant β-catenin. α. […] (F) Northern blotting analysis of RBC cells using β-catenin as a probe.
(§2) FIG. 4 Receptor and ligand specificity in degradation of β-catenin by retinoid receptors. HEK293 cells transfected with expression vectors for β-catenin (4 μg) and RXRs (2 μg) or RARs (2 μg) and treated with ligands at concentrations indicated at the top of each gel. Protein levels were detected by Western blotting as shown in this figure. β-catenin and RARs were detected by HRP-conjugated antibodies against their V5 tag. RXRs were detected by HRP-conjugated antibodies against their Flag tag. […] In this experiment, the amount of expression vectors for RXRα and RARs used in transfection was 1 μg.
(§3) HEK293 cells were seeded at a density of […] per dish were seeded into 100-mm dishes and cultured overnight in DMEM containing 10% FBS. Cells were transfected with 1-4 μg of various cDNA or parental expression vectors (8 μg of DNA in total) using Lipofectamine®. Five hours after transfection, cells were fed with fresh culture media DMEM containing 10% charcoal-treated FBS with vehicle DMSO or retinoids prepared in DMSO. After a given time of treatment, cells were harvested and lysed in a buffer containing 1% Nonidet® P-40, 30 mM Tris-HCl (pH7.4), 0.5 mM EDTA (pH 8.0), 150 mM NaCl, 10% glycerol, 1 mM sodium orthovanadate, 40 mM NaF, 0.5 mM phenylmethylsulfonyl fluoride (PMSF) and a cocktail of protease inhibitors (Merck).
(§4) Total cell lysates were homogenized by passing through a QIAshredder® (Qiagen) and cleared from insoluble materials by centriftigation at 12,000 g. Protein concentration was determined using a Bradford total protein assay kit (Bio-Rad). Total cell lysates were electrophoresed using a 4-12% SDS-PAGE gradient gel and transferred to either nitrocellulose or PVDF filter membranes. The membranes were blocked with 10% non-fat milk reconstituted from dairy milk powder in phosphate-buffered saline (PBS) containing 0.1% Tween®-20 (PBST). The membranes were incubated with primary antibodies at room temperature for 2 hours or at 4° C. for overnight. After the removal of unbound antibodies, membranes were incubated with horseradish peroxidase-conjugated secondary antibodies for one hour at room temperature and washed five times with PBST.

β-catenin = test: Western blotting of β-catenin protein in HEK293 cells and stable lines RBC, CAT, RmBC; assay type: cell-based, human; conditions: for β-catenin stability / degradation, ligand applied alone: HEK293 with β-catenin and RXRα, FIG. 4B
Experimental: as §1, §2, §3, §4

Row | Structure (SMILES) | development of hepatocarcinoma (hepatocarcinoma) | RXRα stability, ligand applied alone (RXRα) | β-catenin protein (β-catenin; HEK293 overexpressing RARα) | β-catenin stability / degradation, ligand applied alone (β-catenin) | antagonism of the effect of AGN 4204 on degradation of RARs and β-catenin (β-catenin; HEK293 co-expressing RXRα and RARs, with AGN 4204) | β-catenin stability / degradation, ligand applied alone (β-catenin; listed as AGN194310)
1 | CC1=C(/C=C/C(C)=C\C=C\C(C)=C\C(=O)O)C(C)(C)CCC1 [9-cis retinoic acid] | suppress the development of hepatocarcinoma |  |  |  |  | 
2 | C/C(=C\c1ccc(C(=O)O)cc1)c1ccc2c(c1)C(C)(C)CCC2(C)C [TTNPB, reference compound] |  | no effect | a slight decrease | have no effects; also recorded: no effect |  | 
3 | CCc1ccc(C2=CC(C)(C)Sc3ccc(C#Cc4ccc(C(=O)O)cc4)cc32)cc1 [compound 194310, reference compound] |  | no effect |  | no effect | not antagonized | have no effects
